From patent US10150760B2, “Compounds for use in preparing heterocyclic triazole agonists of the APJ receptor” (AMGEN INC., priority 2016, dated 2018) come the findings set out here.

Chain of human APJ receptor (P35414 whole entry): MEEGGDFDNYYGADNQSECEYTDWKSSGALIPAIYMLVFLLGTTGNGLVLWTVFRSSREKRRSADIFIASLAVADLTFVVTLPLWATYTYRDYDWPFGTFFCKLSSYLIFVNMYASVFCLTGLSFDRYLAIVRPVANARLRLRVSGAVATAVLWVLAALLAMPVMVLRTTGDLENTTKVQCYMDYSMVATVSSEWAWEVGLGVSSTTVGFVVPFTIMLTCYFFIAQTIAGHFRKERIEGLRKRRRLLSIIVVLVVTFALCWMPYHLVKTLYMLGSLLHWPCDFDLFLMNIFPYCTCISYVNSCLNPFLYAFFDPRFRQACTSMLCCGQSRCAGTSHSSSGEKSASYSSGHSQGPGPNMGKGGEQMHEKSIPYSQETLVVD

This assay concerns the target human APJ receptor (Homo sapiens (Human), UniProt P35414). Briefly: [35S]GTPγS binding assay on membranes from CHO cells stably expressing human APJ receptor. The class given is biochemical. Particulars: read-out: Activity hAPJ SPA EC50 IP. A digest of the protocol:
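Agonist-driven [35S]GTPγS (0.2 nM) binding was measured over 90 min at room temperature on human APJ-expressing CHO membranes with bead capture, in buffer containing 3 μM GDP, 200 mM NaCl and 5 mM MgCl2 (pH 7.5). Excess unlabelled GTPγS (100 μM) gave nonspecific signal; EC50 from non-linear fits.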
Background: Binding of GTPγS marks nucleotide exchange on a G protein.
With `CO[C@H](c1ncc(Cl)cn1)[C@H](C)S(=O)(=O)Nc1nnc([C@H]2CCC(C)(C)O2)n1C(C)C` (single isomer, unassigned) [Example 299.0, (1R,2S)-1-(5-chloropyrimidin-2-yl)-N-(5-((R)-5,5-dimethyltetrahydrofuran-2-yl)-4-isopropyl-4H-1,2,4-triazol-3-yl)-1-methoxypropane-2-sulfonamide or (1R,2S)-1-(5-chloropyrimidin-2-yl)-N-(5-((S)-5,5-dimethyltetrahydrofuran-2-yl)-4-isopropyl-4H-1,2,4-triazol-3-yl)-1-methoxypropane-2-sulfonamide], the EC50 turned out to be 940 nM.

As to `CO[C@H](c1ncc(Cl)cn1)[C@H](C)S(=O)(=O)Nc1nnc([C@H]2CCC(C)(C)O2)n1C(C)C` (single isomer, unassigned) [Example 300.0, (1R,2S)-1-(5-chloropyrimidin-2-yl)-N-(5-((R)-5,5-dimethyltetrahydrofuran-2-yl)-4-isopropyl-4H-1,2,4-triazol-3-yl)-1-methoxypropane-2-sulfonamide or (1R,2S)-1-(5-chloropyrimidin-2-yl)-N-(5-((S)-5,5-dimethyltetrahydrofuran-2-yl)-4-isopropyl-4H-1,2,4-triazol-3-yl)-1-methoxypropane-2-sulfonamide], the EC50 was 1400 nM.

In the case of `CO[C@H](c1ncc(Cl)cn1)[C@H](C)S(=O)(=O)Nc1nnc([C@H]2COCCO2)n1C(C)C` (single isomer, unassigned) [Example 301.0, (1R,2S)-N-(5-((S)-1,4-dioxan-2-yl)-4-isopropyl-4H-1,2,4-triazol-3-yl)-1-(5-chloropyrimidin-2-yl)-1-methoxypropane-2-sulfonamide or (1R,2S)-N-(5-((R)-1,4-dioxan-2-yl)-4-isopropyl-4H-1,2,4-triazol-3-yl)-1-(5-chloropyrimidin-2-yl)-1-methoxypropane-2-sulfonamide], the concentration for a half-maximal effect (EC50) came to 2900 nM.

With `CO[C@H](c1ncc(Cl)cn1)[C@H](C)S(=O)(=O)Nc1nnc([C@H]2COCCO2)n1C(C)C` (single isomer, unassigned) [Example 302.0, (1R,2S)-N-(5-((S)-1,4-dioxan-2-yl)-4-isopropyl-4H-1,2,4-triazol-3-yl)-1-(5-chloropyrimidin-2-yl)-1-methoxypropane-2-sulfonamide or (1R,2S)-N-(5-((R)-1,4-dioxan-2-yl)-4-isopropyl-4H-1,2,4-triazol-3-yl)-1-(5-chloropyrimidin-2-yl)-1-methoxypropane-2-sulfonamide], the EC50 worked out at 710 nM.

Consider `COCCn1c(NS(=O)(=O)[C@@H](C)[C@H](OC)c2ncc(Cl)cn2)nnc1[C@H]1CCOC1` (single isomer, unassigned) [Example 309.0, (1R,2S)-1-(5-chloropyrimidin-2-yl)-1-methoxy-N-(4-(2-methoxyethyl)-5-((R)-tetrahydrofuran-3-yl)-4H-1,2,4-triazol-3-yl)propane-2-sulfonamide or (1R,2S)-1-(5-chloropyrimidin-2-yl)-1-methoxy-N-(4-(2-methoxyethyl)-5-((S)-tetrahydrofuran-3-yl)-4H-1,2,4-triazol-3-yl)propane-2-sulfonamide], for which the EC50 was 2600 nM.

As for `COCCn1c(NS(=O)(=O)[C@@H](C)[C@H](OC)c2ncc(Cl)cn2)nnc1[C@H]1CCOC1` (single isomer, unassigned) [Example 310.0, (1R,2S)-1-(5-chloropyrimidin-2-yl)-1-methoxy-N-(4-(2-methoxyethyl)-5-((R)-tetrahydrofuran-3-yl)-4H-1,2,4-triazol-3-yl)propane-2-sulfonamide or (1R,2S)-1-(5-chloropyrimidin-2-yl)-1-methoxy-N-(4-(2-methoxyethyl)-5-((S)-tetrahydrofuran-3-yl)-4H-1,2,4-triazol-3-yl)propane-2-sulfonamide], the EC50 was 540 nM.

Take `COCCn1c(NS(=O)(=O)[C@@H](C)[C@H](OC)c2ncc(Cl)cn2)nnc1[C@@H]1COCCO1` (single isomer, unassigned) [Example 311.0, (1R,2S)-N-(5-((R)-1,4-dioxan-2-yl)-4-(2-methoxyethyl)-4H-1,2,4-triazol-3-yl)-1-(5-chloropyrimidin-2-yl)-1-methoxypropane-2-sulfonamide or (1R,2S)-N-(5-((S)-1,4-dioxan-2-yl)-4-(2-methoxyethyl)-4H-1,2,4-triazol-3-yl)-1-(5-chloropyrimidin-2-yl)-1-methoxypropane-2-sulfonamide]: the EC50 was determined as 1700 nM.

Consider `COCCn1c(NS(=O)(=O)[C@@H](C)[C@H](OC)c2ncc(Cl)cn2)nnc1[C@@H]1COCCO1` (single isomer, unassigned) [Example 312.0, (1R,2S)-N-(5-((R)-1,4-dioxan-2-yl)-4-(2-methoxyethyl)-4H-1,2,4-triazol-3-yl)-1-(5-chloropyrimidin-2-yl)-1-methoxypropane-2-sulfonamide or (1R,2S)-N-(5-((S)-1,4-dioxan-2-yl)-4-(2-methoxyethyl)-4H-1,2,4-triazol-3-yl)-1-(5-chloropyrimidin-2-yl)-1-methoxypropane-2-sulfonamide], for which the EC50 worked out at 1900 nM.

With `COc1cccc(OC)c1-n1c(NS(=O)(=O)[C@@H](C)[C@H](C)c2ncc(F)cn2)nnc1[C@H]1CCC(C)(C)O1` (single isomer, unassigned) [Example 333.0, (2S,3R)-N-(4-(2,6-dimethoxyphenyl)-5-((R)-5,5-dimethyltetrahydrofuran-2-yl)-4H-1,2,4-triazol-3-yl)-3-(5-fluoropyrimidin-2-yl)butane-2-sulfonamide or (2S,3R)-N-(4-(2,6-dimethoxyphenyl)-5-((S)-5,5-dimethyltetrahydrofuran-2-yl)-4H-1,2,4-triazol-3-yl)-3-(5-fluoropyrimidin-2-yl)butane-2-sulfonamide], the EC50 stood at 190 nM.

Take `COc1cccc(OC)c1-n1c(NS(=O)(=O)[C@@H](C)[C@H](C)c2ncc(F)cn2)nnc1[C@H]1CCC(C)(C)O1` (single isomer, unassigned) [Example 334.0, (2S,3R)-N-(4-(2,6-dimethoxyphenyl)-5-((R)-5,5-dimethyltetrahydrofuran-2-yl)-4H-1,2,4-triazol-3-yl)-3-(5-fluoropyrimidin-2-yl)butane-2-sulfonamide or (2S,3R)-N-(4-(2,6-dimethoxyphenyl)-5-((S)-5,5-dimethyltetrahydrofuran-2-yl)-4H-1,2,4-triazol-3-yl)-3-(5-fluoropyrimidin-2-yl)butane-2-sulfonamide]: the concentration giving a half-maximal response (EC50) came to 2.5 nM.

As for `CCC(CC)n1c(NS(=O)(=O)[C@@H](C)[C@H](OC)c2ncc(Cl)cn2)nnc1[C@@H]1COCCO1` (single isomer, unassigned) [Example 335.0, (1R,2S)-1-(5-chloro-2-pyrimidinyl)-N-(5-((2R)-1,4-dioxan-2-yl)-4-(3-pentanyl)-4H-1,2,4-triazol-3-yl)-1-methoxy-2-propanesulfonamide or (1R,2S)-1-(5-chloro-2-pyrimidinyl)-N-(5-((2S)-1,4-dioxan-2-yl)-4-(3-pentanyl)-4H-1,2,4-triazol-3-yl)-1-methoxy-2-propanesulfonamide], the EC50 is 38 nM.

Turning to `CCC(CC)n1c(NS(=O)(=O)[C@@H](C)[C@H](OC)c2ncc(Cl)cn2)nnc1[C@@H]1COCCO1` (single isomer, unassigned) [Example 336.0, (1R,2S)-1-(5-chloro-2-pyrimidinyl)-N-(5-((2R)-1,4-dioxan-2-yl)-4-(3-pentanyl)-4H-1,2,4-triazol-3-yl)-1-methoxy-2-propanesulfonamide or (1R,2S)-1-(5-chloro-2-pyrimidinyl)-N-(5-((2S)-1,4-dioxan-2-yl)-4-(3-pentanyl)-4H-1,2,4-triazol-3-yl)-1-methoxy-2-propanesulfonamide], the 50% effective concentration (EC50) stood at 1400 nM.

For the compound `CO[C@H](c1ncc(Cl)cn1)[C@H](C)S(=O)(=O)Nc1nnc([C@@H]2COCCO2)n1C(C1CC1)C1CC1` (single isomer, unassigned) [Example 337.0, (1R,2S)-1-(5-chloro-2-pyrimidinyl)-N-(4-(dicyclopropylmethyl)-5-((2R)-1,4-dioxan-2-yl)-4H-1,2,4-triazol-3-yl)-1-methoxy-2-propanesulfonamide or (1R,2S)-1-(5-chloro-2-pyrimidinyl)-N-(4-(dicyclopropylmethyl)-5-((2S)-1,4-dioxan-2-yl)-4H-1,2,4-triazol-3-yl)-1-methoxy-2-propanesulfonamide], the EC50 amounted to 6.9 nM.

`CO[C@H](c1ncc(Cl)cn1)[C@H](C)S(=O)(=O)Nc1nnc([C@@H]2COCCO2)n1C(C1CC1)C1CC1` (single isomer, unassigned) [Example 338.0, (1R,2S)-1-(5-chloro-2-pyrimidinyl)-N-(4-(dicyclopropylmethyl)-5-((2R)-1,4-dioxan-2-yl)-4H-1,2,4-triazol-3-yl)-1-methoxy-2-propanesulfonamide or (1R,2S)-1-(5-chloro-2-pyrimidinyl)-N-(4-(dicyclopropylmethyl)-5-((2S)-1,4-dioxan-2-yl)-4H-1,2,4-triazol-3-yl)-1-methoxy-2-propanesulfonamide]: the concentration for a half-maximal effect (EC50) turned out to be 110 nM.

Regarding `COCC1(n2c(NS(=O)(=O)[C@@H](C)[C@H](OC)c3ncc(Cl)cn3)nnc2[C@H]2CCOC2)CC1` (single isomer, unassigned) [Example 339.0, (1R,2S)-1-(5-chloro-2-pyrimidinyl)-1-methoxy-N-(4-(1-(methoxymethyl)cyclopropyl)-5-((3R)-tetrahydro-3-furanyl)-4H-1,2,4-triazol-3-yl)-2-propanesulfonamide or (1R,2S)-1-(5-chloro-2-pyrimidinyl)-1-methoxy-N-(4-(1-(methoxymethyl)cyclopropyl)-5-((3S)-tetrahydro-3-furanyl)-4H-1,2,4-triazol-3-yl)-2-propanesulfonamide], the EC50 is 1440 nM.

Broadly, the EC50 is the concentration at which the effect is half-maximal.
